Where two headings read alike, the source gives them in different places.
Test system: H460 non-cell lung cancer human tumor cell line
Experiment: In vitro human tumor cell line cytotoxicity (proliferation) assay, AlamarBlue
Assay type: cell-based
Details: Homo sapiens, NCI-H460, H460 cells, 2 hrs exposure, wash, then 70 hrs growth
Method: IC50 values are reported in micromolar and result from exposure of compound at various concentrations for 2 hrs followed by a wash step and addition of fresh media followed by growth and cell viability staining and comparison to a media only treated control.
Specifically, exponentially growing cells are seeded at a density of 4×10^3 cells per well in a 96 well plate and incubated at 37° C. in 5% CO2, 95% air and 100% relative humidity for 24 hours prior to addition of test compounds. Compounds are solubilized in 100% DMSO at 200 times the desired final test concentration. At the time of drug addition, compounds are further diluted to 4 times the desired final concentration with complete medium. Aliquots of 50 μl of compound at specified concentrations are added to microtiter wells already containing 150 μl of medium, resulting in the final drug concentration reported. After drug addition, the plates are incubated for an additional 2 hours at 37° C., 5% CO2, 95% air, and 100% relative humidity, then the drug is washed off and fresh medium is added and the plates are incubated for addition 70 hrs at 37° C., 5% CO2, 95% air and 100% relative humidity. At the end of this incubation, the viable cells are quantified using the AlamarBlue assay. The drug concentration resulting in growth inhibition of 50% (IC50) is calculated using Prism software (Irvine, Calif.), and the results are listed in the table.

[1] = under air, read-out: IC50 (air)
[2] = under nitrogen, read-out: IC50 (N2)

| SMILES | IC50 [1] | IC50 [2] |
| --- | --- | --- |
| CCCC(OP(=O)(N1CC1)N1CC1)c1ccc([N+](=O)[O-])cc1OC (stereo not drawn) [compound 2595] | 3200 nM | 200 nM |
| CC(C)Oc1cc([N+](=O)[O-])ccc1COP(=O)(N1CC1)N1CC1 [compound 2599] | 1500 nM | 80 nM |
| COc1cc([N+](=O)[O-])ccc1C(C)OP(=O)(N1CC1)N1CC1 (stereo not drawn) [compound 2600] | 2800 nM | 50 nM |
| O=[N+]([O-])c1cc(Cl)c(COP(=O)(N2CC2)N2CC2)c(Cl)c1 [compound 2602] | 250 nM | 20 nM |
| CC(C)C(OP(=O)(N1CC1)N1CC1)c1ncc([N+](=O)[O-])n1CCN1CCCCC1 (stereo not drawn) [compound 2603] | 29000 nM | 300 nM |
| CC(C)C(OP(=O)(N1CC1)N1CC1)c1ncc([N+](=O)[O-])n1C(C)C (stereo not drawn) [compound 2604] | 320000 nM | 700 nM |
| O=[N+]([O-])c1ccc(COP(=O)(N2CC2)N2CC2)c(Br)c1 [compound 2608] | 3100 nM | 300 nM |
| CCC(CC)C(OP(=O)(N1CC1)N1CC1)c1ncc([N+](=O)[O-])n1C (stereo not drawn) [compound 2609] | 370000 nM | 400 nM |
| CCCC(OP(=O)(N1CC1)N1CC1)c1c(C)cccc1[N+](=O)[O-] (stereo not drawn) [compound 2610] | 350000 nM | 51000 nM |
| Cc1cc([N+](=O)[O-])ccc1C(C)OP(=O)(N1CC1)N1CC1 (stereo not drawn) [compound 2611] | 14000 nM | 200 nM |
| CC(OP(=O)(N1CC1)N1CC1)c1ccc([N+](=O)[O-])c(C(F)(F)F)c1 (stereo not drawn) [compound 2613] | 26000 nM | 300 nM |
| Cc1cccc([N+](=O)[O-])c1C(C)OP(=O)(N1CC1)N1CC1 (stereo not drawn) [compound 2615] | 350000 nM | 320000 nM |
| COc1ccc(C(C)OP(=O)(N2CC2)N2CC2)c([N+](=O)[O-])c1 (stereo not drawn) [compound 2616] | 17000 nM | 3700 nM |
| CC(C)C(OP(=O)(N1CC1)N1CC1)c1ncc([N+](=O)[O-])n1C1CCCC1 (stereo not drawn) [compound 2619] | 99000 nM | 2300 nM |
| COc1cc(C(C)OP(=O)(N2CC2)N2CC2)ccc1[N+](=O)[O-] (stereo not drawn) [compound 2620] | 7400 nM | 2500 nM |
| CC(OP(=O)(N1CC1)N1CC1)c1ccc([N+](=O)[O-])c(O)c1 (stereo not drawn) [compound 2621] | 39000 nM | 300 nM |
| CC(C)C(OP(=O)(N1CC1)N1CC1)c1nc(Br)c([N+](=O)[O-])n1C (stereo not drawn) [compound 2624] | 160000 nM | 500 nM |
| O=[N+]([O-])c1ccc(COP(=O)(N2CC2)N2CC2)c(-c2ccccc2)c1 [compound 2626] | 3300 nM | 600 nM |
| CC(C)n1c([N+](=O)[O-])cnc1COP(=O)(N1CC1)N1CC1 [compound 2627] | 32000 nM | 500 nM |
| Cn1c([N+](=O)[O-])cnc1C(OP(=O)(N1CC1)N1CC1)C1CCCCC1 (stereo not drawn) [compound 2633] | 83000 nM | 300 nM |
| O=[N+]([O-])c1cnc(COP(=O)(N2CC2)N2CC2)n1C1CCCC1 [compound 2635] | 13000 nM | 220 nM |
| COc1cccc([N+](=O)[O-])c1COP(=O)(N1CC1)N1CC1 [compound 2637] | 23000 nM | 800 nM |
| Cn1c([N+](=O)[O-])cnc1C(OP(=O)(N1CC1)N1CC1)C(c1ccccc1)c1ccccc1 (stereo not drawn) [compound 2640] | 83000 nM | 1100 nM |
| CC(C)C(OP(=O)(N1CC1)N1CC1)c1ncc([N+](=O)[O-])n1CCOC(C)(C)C (stereo not drawn) [compound 2643] | 37000 nM | 600 nM |
| CCCCC(CCCC)C(OP(=O)(N1CC1)N1CC1)c1ncc([N+](=O)[O-])n1C (stereo not drawn) [compound 2645] | 30000 nM | 1600 nM |
| O=[N+]([O-])c1ccc2c(c1)CCC2OP(=O)(N1CC1)N1CC1 (stereo not drawn) [compound 2652] | 2200 nM | 20 nM |
| Cn1c([N+](=O)[O-])cnc1C(CO)OP(=O)(C1CC1)N1CC1 (stereo not drawn) [compound 2654] | > 500000 nM | 260000 nM |

Source: patent publication US10668047B2, “Aziridine containing DNA alkylating agents” (priority 2015, dated 2020)
